Measured values: US6593342B1, “Pharmaceutical compositions comprising 2-quinolones” (Laboratoire L. Lafon, priority 1998, dated 2003)

Legend:
lymphoma P 388 = assay: In vivo antitumor activity, lymphoma P 388; set-up: species or system mouse; settings: Table IX; subcutaneous P 388 in CDF1 mice; compound 1 or 20 40 mg/kg 5/week from D5, 5 weeks; VCR 0.63 mg/kg 3/week from D5, 3 weeks
Experimental: 4.—In Vivo Antitumor Activity in Combination With a Cytotoxic Agent
The tests were carried out on models of:
in the presence or absence of cytotoxic agents such as cyclophosphamide, etoposide, doxorubicin or vincristine.
When the MTD value of a product was determined, its in vivo antitumor activity was characterized at doses of MTD/2, MTD/4 and MTD/8 on the model of mouse mammary adenocarcinoma HS-MXT and on the model of lymphoma P 388.
In all the examples presented below, irrespective of the model (mammary adenocarcinoma HS-MXT or lymphoma P 388), the control condition is represented by a batch of 9 mice to which is administered for 5 consecutive weeks and at a rate of 5 administrations (Monday, Tuesday, Wednesday, Thursday and Friday) per week a volume of 0.2 ml of physiological saline containing the solvent used to dissolve the various compounds of formulae (I) and (Ia) used.
i)—The survival rate of the mice
This survival rate was calculated in the form of a ratio T/C:
This ratio represents the average survival time of the median mouse from the batch of treated mice relative to the average survival time of the median mouse from the batch of control mice. Thus, a molecule induces a significant (P<0.05) increase in the survival of the animals when the index T/C exceeds 130%. Conversely, it has a toxic effect when this value of T/C is less than 70%.
4- to 6-week-old CDF1 mice are grafted with a piece of P 388 tumor (from a tumor bank maintained in the laboratory) subcutaneously into the right flank on day D0. In order to be under conditions close to clinical reality, we waited until the 5th day post-grafting (D5) before starting the treatment. The reason for this was that, after this period of time, the subcutaneous P 388 tumors are palpable.
Compound 1 is administered alone. The first injection of the product is carried out on the 5th day post-grafting (D5) at a rate of 5 injections per week (Monday, Tuesday, Wednesday, Thursday and Friday) for five consecutive weeks-and at a dose of 40 mg/kg.
Compound 20 is administered alone. […]

clonogenic cells = assay: Clonogenic test, overall statement; assay type: cell-based; settings: in words
Text: 1—Interaction (Stimulation or Inhibition of Proliferation) With the Generation of Clonogenic Cells (Clonogenic Test)
The test used is that described by Hamburger et al. (Science, 1977; 197, 461-463) and Salmon et al. (New England J. Med., 298, 1321-1327). A cell is considered clonogenic if it has the capacity to proliferate and to give rise to a cell colony. “Human tumor stem cells” are the cells which are the source of the neoplastic cells which constitute a given tumor. These tumor stem cells are responsible for the relapse processes which may be observed after surgical resection of primary tumors and are also responsible for the formation of metastases. […]
The influence of the compounds of formulae (I) and (Ia) on the growth of the cell colonies obtained by culturing, for example, the mammalian tumor lines MCF7 and MXT and the colorectal line HT-29 on the semi-liquid culture medium known as “soft agar” was measured. […]
The tumor cell lines studied are maintained in culture in 25 cm^2 falcon dishes. […] The percentage of live cells is determined after staining with trypan blue. […] After fixing for 24 hours, the formalin is evaporated off and the number of stained cell colonies, thus consisting of metabolically active cells, and whose surface area is greater than 100 μm^2, is determined using an inverted microscope. […]

Row | Compound | T/C (survival) (lymphoma P 388) [%] | effect on the average number of clones of clonogenic cells relative to the reference situation (clonogenic cells)
1 | COc1ccc(-c2cc3c(OC)cc(OC)cc3[nH]c2=O)cc1 [CRL8246, 5,7-Dimethoxy-3-(4-methoxyphenyl)-1,2-dihydro-2-quinolinone] | 120 | 
2 | CCN(CC)C(=O)Cn1c(=O)c(-c2ccc(OC)cc2)cc2c(OC)cc(OC)cc21 [CRL8315, N,N-Diethyl-2-[5,7-dimethoxy-3-(4-methoxy-phenyl)-2-oxo-1,2-dihydro-1-quinolinyl]acetamide] |  | increase
3 | CCN(CC)C(=O)CCn1c(=O)c(-c2ccc(OC)cc2)cc2c(OC)cc(OC)cc21 [CRL8283, N,N-Diethyl-3-[5,7-dimethoxy-3-(4-methoxy-phenyl)-2-oxo-1,2-dihydro-1-quinolinyl]propanamide] |  | reduce
4 | COc1ccc(-c2cc3c(OC)cc(OC)cc3n(CCC#N)c2=O)cc1 [CRL8247, 3-[5,7-Dimethoxy-3-(4-methoxyphenyl)-2-oxo-1,2-dihydro-1-quinolinyl]propanenitrile] | 125 | 
